# Measured values taken from US6656956B2, “Benzimidazole derivatives, processes for preparing them and their use as pharmaceutical compositions” (Boehringer Ingelheim Pharma KG, priority 2001, dated 2003).
# pIC50: −log10 of the molar value. Counter-ions that a name gives are not always drawn.
# Molecular target: T1, rh beta tryptase (Homo sapiens, UniProt Q15661)
# T1 construct: purchased Promega
# Experiment: tryptase inhibition in vitro test (cleavage of N-p-tosyl-Gly-Pro-Lys-para-nitroaniline, p-nitroaniline measured at 405 nm)
# Assay type: biochemical
# Conditions: rh beta tryptase 0.91 U/ml, substrate 0.6 mM, Tris HCl buffer with calcium and heparin, pH 7.4, 37° C., 5 minutes incubation; read-out: Tryptase-inhibiting activity
# Procedure: The compounds according to the invention are characterised by their tryptase-inhibiting activity. This ability to inhibit tryptase was investigated using the test described below.
# The measurement is carried out in Tris HCl buffer (100 mM), which additionally contains calcium (5 mM) and heparin ([…]), at pH 7.4. The standard used is rh beta tryptase which may be obtained commercially from Promega, for example. The substrate used is N-p-tosyl-Gly-Pro-Lys-para-nitroaniline in a concentration of 0.6 mM. The substrate is digested with tryptase to form p-nitroaniline which can be measured at 405 nm. Usually, an incubation period of 5 minutes and an incubation temperature of 37° C. are chosen. The enzyme activity used is 0.91 U/ml. The measurements are carried out in an Autoanalyser (Cobas Bio) made by Hofmann LaRoche. The potential inhibitory substances are used in concentrations of 10 μM in the screening, the inhibition of the tryptase being given in percent. The IC50 is determined at over 70% inhibition (concentration at which 50% of the enzyme activity is inhibited). After 5 minutes' pre-incubation of the potential inhibitory substances, the substrate is added to start the reaction, the formation of p-nitroaniline being taken as a measurement of the enzyme activity after 5 minutes, after testing the linearity.
# T1 sequence (Q15661 31-275): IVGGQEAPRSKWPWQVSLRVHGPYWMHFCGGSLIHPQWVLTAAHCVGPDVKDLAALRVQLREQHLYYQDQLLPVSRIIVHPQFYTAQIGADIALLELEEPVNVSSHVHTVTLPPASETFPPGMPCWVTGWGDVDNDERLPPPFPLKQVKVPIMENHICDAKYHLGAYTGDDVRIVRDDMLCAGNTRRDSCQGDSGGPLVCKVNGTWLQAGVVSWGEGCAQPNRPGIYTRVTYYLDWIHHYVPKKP
row,pIC50,Structure (SMILES)
1,6.00 to 7.51,"CN(C)CCCN(C)C(=O)Nc1ccc2c(c1)nc(CCc1ccc(C(=N)N)cc1)n2C [Example 81, N-{2-[2-(4-Amidinophenyl)-ethyl]-1-methyl-benzimidazol-5-yl}-N′-methyl-N′-(3-dimethylaminopropyl)-urea, hydrochloride]"
2,8.52 to 9.30,"CN(C(=O)CN1CCC(Nc2ccccc2F)CC1)c1ccc2c(c1)nc(CCc1ccc(C(=N)N)cc1)n2C [Example 36, N-{2-[2-(4-Amidinophenyl)-ethyl]-1-methyl-benzimidazol-5-yl}-N-methyl-2-[4-(2-fluorophenylamino)-piperid-1-yl]-acetamide, dihydrochloride]"
3,7.52 to 8.40,"Cn1c(CCc2ccc(C(=N)N)cc2)nc2cc(N(Cc3cccc4ccccc34)C(=O)CN3CCC(Nc4ccc(O)cc4)CC3)ccc21 [Example 18, N-{2-[2-(4-Amidinophenyl)-ethyl]-1-methyl-benzimidazol-5-yl}-N-[naphth-1-ylmethyl]-2-[4-(4-hydroxyphenylamino)-piperid-1-yl]-acetamide, dihydrochloride]"
4,7.52 to 8.40,"CN(C(=O)CN1CCC(Nc2ccc3c(c2)Cc2ccccc2-3)CC1)c1ccc2c(c1)nc(CCc1ccc(C(=N)N)cc1)n2C [Example 42, N-{2-[2-(4-Amidinophenyl)-ethyl]-1-methyl-benzimidazol-5-yl}-N-methyl-2-[4-(aminofluorene)-piperid-1-yl]-acetamide, dihydrochloride]"
5,7.52 to 8.40,"Cc1ccccc1NC1CCN(CC(=O)N(C)c2ccc3c(c2)nc(CCc2ccc(C(=N)N)cc2)n3C)CC1 [Example 63, dihydrochloride]"
6,7.52 to 8.40,"CCOC(=O)CCN(C)C1CCN(CC(=O)N(Cc2cccc3ccccc23)c2ccc3c(c2)nc(CCc2ccc(C(=N)N)cc2)n3C)CC1 [Example 21, N-{2-[2-(4-Amidinophenyl)-ethyl]-1-methyl-benzimidazol-5-yl}-N-[naphth-1-ylmethyl]-2-[4-(ethyl N-methyl-N-propionate)-piperid-1-yl]-acetamide, trihydrochloride]"
7,8.52 to 9.30,"CN(C(=O)CN1CCC(Nc2ccc3ccccc3c2)CC1)c1ccc2c(c1)nc(CCc1ccc(C(=N)N)cc1)n2C [Example 30, N-{2-[2-(4-Amidinophenyl)-ethyl]-1-methyl-benzimidazol-5-yl}-N-methyl-2-[4-(2-naphthylamino)-piperid-1-yl]-acetamide, dihydrochloride]"
8,7.52 to 8.40,"Cn1c(CCc2ccc(C(=N)N)cc2)nc2cc(N(Cc3ccc(C(C)(C)C)cc3)C(=O)CN3CCC(Nc4ccccn4)CC3)ccc21 [Example 3, N-{2-[2-(4-Amidinophenyl)-ethyl]-1-methyl-benzimidazol-5-yl}-N-(4-tert-butylphenylmethyl)-2-[4-(2-pyridylamino)-piperid-1-yl]-acetamide, Dihydrochloride]"
9,7.52 to 8.40,"Cn1c(CCc2ccc(C(=N)N)cc2)nc2cc(N(Cc3cccc4ccccc34)C(=O)CN3CCC(Cc4ccccc4)CC3)ccc21 [Example 9, N-{2-[2-(4-Amidinophenyl)-ethyl]-1-methyl-benzimidazol-5-yl}-N-[naphth-1-ylmethyl]-2-[4-(benzyl)-piperid-1-yl]-acetamide, dihydrochloride]"
10,7.52 to 8.40,"Cn1c(CCc2ccc(C(=N)N)cc2)nc2cc(N(Cc3cccc4ccccc34)C(=O)CN3CCC(Cc4ccccn4)CC3)ccc21 [Example 20, N-{2-[2-(4-Amidinophenyl)-ethyl]-1-methyl-benzimidazol-5-yl}-N-[naphth-1-ylmethyl]-2-[4-(2-pyridylmethyl)-piperid-1-yl]-acetamide, dihydrochloride]"
11,8.52 to 9.30,"CN(C(=O)CN1CCC(Nc2ccc(Cl)c(Cl)c2)CC1)c1ccc2c(c1)nc(CCc1ccc(C(=N)N)cc1)n2C [Example 107, N-{2-[2-(4-Amidinophenyl)-ethyl]-1-methyl-benzimidazol-5-yl}-N-methyl-2-[4-(3,4-dichlorophenylamino)-piperid-1-yl]-acetamide, dihydrochloride]"

# More lines, now with the values behind:
row,Structure (SMILES),pIC50
1,"Cn1c(CCc2ccc(C(=N)N)cc2)nc2cc(N(Cc3cccc4ccccc34)C(=O)CN3CCC(Oc4ccccn4)CC3)ccc21 [Example 16, N-{2-[2-(4-Amidinophenyl)-ethyl]-1-methyl-benzimidazol-5-yl}-N-[naphth-1-ylmethyl]-2-[4-(2-pyridinoxy)-piperid-1-yl]-acetamide, dihydrochloride]",7.52 to 8.40
2,"Cn1c(CCc2ccc(C(=N)N)cc2)nc2cc(N(Cc3cccc4ccccc34)C(=O)N3CCC(Nc4ccccn4)CC3)ccc21 [Example 79, N-{2-[2-(4-Amidinophenyl)-ethyl]-1-methyl-benzimidazol-5-yl}-N-[naphth-1-ylmethyl]-N′-[4-(2-pyridyl)-amino]-piperid-1-ine-urea, hydrochloride]",6.00 to 7.51
3,"CN(C(=O)CN1CCC(Nc2ccc(F)cc2Cl)CC1)c1ccc2c(c1)nc(CCc1ccc(CN)cc1)n2C [Example 84, Ditrifluoroacetate]",7.52 to 8.40
4,"Cc1ccc(NC2CCN(CC(=O)N(C)c3ccc4c(c3)nc(CCc3ccc(C(=N)N)cc3)n4C)CC2)c(Cl)c1 [Example 61, N-{2-[2-(4-Amidinophenyl)-ethyl]-1-methyl-benzimidazol-5-yl}-N-methyl-2-[4-(2-chloro-4-methylamino)-piperid-1-yl]-acetamide, dihydrochloride]",8.52 to 9.30
5,"Cn1c(CCc2ccc(C(=N)N)cc2)nc2cc(N(Cc3ccccc3)C(=O)CN3CCC(Nc4ccccc4F)CC3)ccc21 [Example 59, N-{2-[2-(4-Amidinophenyl)-ethyl]-1-methyl-benzimidazol-5-yl}-N-benzyl-2-[4-(2-fluorophenylamino)-piperid-1-yl]-acetamide, dihydrochloride]",8.52 to 9.30
6,"Cn1c(CCc2ccc(C(=N)N)cc2)nc2cc(N(Cc3cccc4ccccc34)C(=O)CN3CCC(NC(=O)c4ccccn4)CC3)ccc21 [Example 7, N-{2-[2-(4-Amidinophenyl)-ethyl]-1-methyl-benzimidazol-5-yl}-N-[naphth-1-ylmethyl]-2-[4-(2-pyridylcarboxylic acid amide)-piperid-1-yl]-acetamide, dihydrochloride]",7.52 to 8.40
7,"CC(C)c1ccc(NC2CCN(CC(=O)N(C)c3ccc4c(c3)nc(CCc3ccc(C(=N)N)cc3)n4C)CC2)c(Br)c1 [Example 68, N-{2-[2-(4-Amidinophenyl)-ethyl]-1-methyl-benzimidazol-5-yl}-N-methyl-2-[4-(2-bromo-4-isopropylamino)-piperid-1-yl]-acetamide, dihydrochloride]",6.00 to 7.51
8,"Cn1c(CCc2ccc(C(=N)N)cc2)nc2cc(N(Cc3cccc4ccccc34)C(=O)CN3CCC(Nc4ccc(Cl)cc4)CC3)ccc21 [Example 10, N-{2-[2-(4-Amidinophenyl)-ethyl]-1-methyl-benzimidazol-5-yl}-N-[naphth-1-ylmethyl]-2-[4-(4-chlorophenylamino)-piperid-1-yl]-acetamide, dihydrochloride]",8.52 to 9.30
9,"Cn1c(CCc2ccc(C(=N)N)cc2)nc2cc(N(Cc3cccc4ccccc34)C(=O)Nc3ccccc3)ccc21 [Example 72, N-{2-[2-(4-Amidinophenyl)-ethyl]-1-methyl-benzimidazol-5-yl}-N-[naphth-1-ylmethyl]-N′-phenyl-urea, hydrochloride]",6.00 to 7.51
10,"Cn1c(CCc2ccc(C(=N)N)cc2)nc2cc(N(Cc3cccc(N)c3)C(=O)CN3CCC(Nc4ccccn4)CC3)ccc21 [Example 55, N-{2-[2-(4-Amidinophenyl)-ethyl]-1-methyl-benzimidazol-5-yl}-N-[3-aminophenyl-methyl]-2-[4-(2-pyridylamino)-piperid-1-yl]-acetamide, dihydrochloride]",7.52 to 8.40
11,"CN(C(=O)CN1CCC(Nc2ccc(C(F)(F)F)cc2Br)CC1)c1ccc2c(c1)nc(CCc1ccc(C(=N)N)cc1)n2C [Example 67, N-{2-[2-(4-Amidinophenyl)-ethyl]-1-methyl-benzimidazol-5-yl}-N-methyl-2-[4-(2-bromo-4-trifluoromethylamino)-piperid-1-yl]-acetamide, dihydrochloride]",7.52 to 8.40
12,"Cn1c(CCc2ccc(C(=N)N)cc2)nc2cc(N(Cc3cccc([N+](=O)[O-])c3)C(=O)CN3CCC(Nc4ccccn4)CC3)ccc21 [Example 50, N-{2-[2-(4-Amidinophenyl)-ethyl]-1-methyl-benzimidazol-5-yl}-N-[3-nitrophenylmethyl]-2-[4-(2-pyridylamino)-piperid-1-yl]-acetamide, dihydrochloride]",7.52 to 8.40
13,"Cn1c(CCc2ccc(C(=N)N)cc2)nc2cc(N(Cc3cccc4ccccc34)C(=O)NCc3ccccc3)ccc21 [Example 5, N-{2-[2-(4-Amidinophenyl)-ethyl]-1-methyl-benzimidazol-5-yl}-N-(naphth-1-ylmethyl)-N′-benzyl-urea, Hydrochloride]",6.00 to 7.51
14,"CN(C(=O)CN1CCC(Nc2ccc(F)cc2Cl)CC1)c1ccc2c(c1)nc(CCc1ccc(C(=N)N)cc1)n2C [Example 33, N-{2-[2-(4-Amidinophenyl)-ethyl]-1-methyl-benzimidazol-5-yl}-N-methyl-2-[4-(2-chloro-4-fluorophenylamino)-piperid-1-yl]-acetamide, dihydrochloride]",8.52 to 9.30
15,"CN(C(=O)CN1CCC(N(C)c2ccc3ccccc3c2)CC1)c1ccc2c(c1)nc(CCc1ccc(C(=N)N)cc1)n2C [Example 34, N-{2-[2-(4-Amidinophenyl)-ethyl]-1-methyl-benzimidazol-5-yl}-N-methyl-2-[4-(2-naphthyl-N-methylamino)-piperid-1-yl]-acetamide, dihydrochloride]",7.52 to 8.40
